In patent US20120190814A1, “Thiol Protecting Group” (UCL BUSINESS PLC, priority 2009, published 2012):

Test system: GIRK currents
Assay: patch clamp assay, control treatment with Pertussis toxin or GIRK inhibitor
Assay type: cell-based, human
Details: Tertiapin 100 nM, pertussis toxin 100 ng/ml overnight
Method: HEK 293 cells expressing HKIR3.1/3.2 channel and human somatostatin receptor 2 were treated with these compounds, and whole cell patch-clamp current recordings taken.
Whole cell patch-clamp current recordings were performed with an Axopatch 200B amplifier (Axon Instruments) using fire-polished pipettes with a resistance of 3-4 MΩ pulled from filamented borosilicated glass capillaries (Harvard Apparatus, 1.5 mm OD×1.17 mm ID). Data was acquired and analysed via a Digidata 1322A interface (Axon Instruments) and pCLAMP software (version 8.1, Axon Instruments). A fast perfusion system was used to apply somatostatin and analogues (Rapid Solution Changer, RSC-160, Bio-Logic France). Cells were clamped at −60 mV. The extracellular solution was (mM): NaCl 80, KCl 60, CaCl22, MgCl21, HEPES 10, NaH2PO4 0.33, glucose 10, pH 7.4; while the intracellular solution was (mM): K gluconate 110, KCl 20, NaCl 10, MgCl2 1, MgATP 2, EGTA 2 GTP 0.3, pH 7.4. After agonist application, current activated with a delay “lag” followed by a rapid rise to peak amplitude “time to peak”. After removal of the agonist, the current decays back to baseline. For each cell it was assessed if flow artifacts resulting from the pressure of drug application were present. This was done by applying bath solution from one of the sewer pipes at the beginning of the recordings. […]

| Substance | GIRK currents when cells were treated with control inhibitor |
| --- | --- |
| Pertussis toxin | currents were largely inhibited |
| Tertiapin Q | currents were largely inhibited |
